Consider one molecule from US7973056B2, “Triazole derivative or salt thereof” (Fujifilm Finechemicals Co., Ltd, priority 2008, dated 2011).

In brackets after ≈: the same amount, converted by molar mass.

This test relates to Aspergillus niger ATCC 8740. Put plainly: Antifungal activity test (in vitro), MIC. The class given is cell-based. Conditions: ATCC8740. On the procedure: Minimum inhibitory concentration (MIC) of each of the compounds obtained in Examples 1 to 12 was measured for respective fungi at MOS Pharm Service, by the methods described in Antimicrobial Agents and Chemotherapy, vol. 3, pp. 40-48 (1973), Antimicrobial Agents and Chemotherapy, vol. 33, pp. 215-222 (1989) and Antimicrobial Agents and Chemotherapy, vol. 38, pp. 2362-2368 (1994). The measuring conditions are shown in the following. In this case, Voriconazol was used as a comparative compound. Aspergillus niger ATCC 8740; Cultured at 28° C. for 2 days using potato dextrose broth, and this was used as a cell suspension. Each of the compounds of the invention was adjusted to a concentration of 1% by weight using dimethyl sulfoxide (DMSO) and a medium similar to the respective medium used in the above-mentioned fungal culture, having a final concentration of from 0.001 to 100 μg/ml, was prepared. Each of the inoculation cell suspensions prepared by the above-mentioned methods was inoculated onto this agar plate. […] In this connection, Voriconazol was used as the comparative compound C-1.

Take `C[C@@H](N1CC=C(c2ccccn2)CC1)[C@](O)(Cn1cncn1)c1ccc(F)cc1F` [I-3, (2R,3R)-2-(2,4-difluorophenyl)-3-(3′,6′-dihydro-2,4′-bipyridin-1′(2′H)-yl)-1-(1,2,4-triazol-1-yl)butan-2-ol]: the minimal inhibitory concentration (MIC) worked out at 1 µg/mL (≈ 2.43 µM).
